The target of experiment [1] is T1, AKT1 E17K (Homo sapiens, UniProt P31749, E17K).
T1 construct: Purified human recombinant kinase full-length AKT1 E17K was expressed in insect cells; made in house; host or cells: insect cells
Nature of the experiment: AKT1 E17K kinase assay (TR-FRET, Lance). The format is biochemical. To be noted: full-length human recombinant AKT1 E17K activated by PDPK1; Ulight-CREBtide substrate; either 50 μM ATP or 2 mM ATP. The procedure: AKT1 E17K kinase assay: Inhibitory effects of compounds on AKT1 E17K were undertaken in a 10-pt dose response kinase activity assay measuring phospho-peptide product formation based on TR-FRET signal as described in the following paragraph.
(§1) Purified human recombinant kinase full-length AKT1 E17K was expressed in insect cells and activated in vitro by PDPK1. Ulight™-CREBtide (PerkinElmer, catalog number TRF0107) was used as the peptide substrate. The reaction buffer consisted of 50 mM HEPES pH 7.5, 10 mM MgCl2, 0.01% Triton X-100, 0.01% BSA, 2 mM DTT, 0.6 nM AKT1 E17K, 50 nM Ulight™-CREBtide and either 50 μM ATP or 2 mM ATP. The compound solution was prepared as 10 mM DMSO stock. For the assay, a 1:3 serial dilution 10-pt dose response of test compounds, in duplicate, for each concentration were dispensed into a 384-well plate (Corning, catalog number 4513). Final DMSO concentration in the assay was 1%. The enzyme mixture (5 μL, 1.2 nM) were added and the mixture was incubated for 15 min at RT prior to the start of the kinase reaction by the addition of 5 μL substrate mixture (100 nM Ulight™-CREBtide). The reaction was stopped after 60 min of incubation at RT by the addition of 10 μL of Detection Mix (PerkinElmer, #CR97-100) consisting of Europium-anti-phospho-CREB (Ser133) (Perkin Elmer, catalog numberTRF0200). Incubation with the detection mix for a further 60 min allowed binding of antibody to the phospho-Ulight™ CREBtide. The fluorescence emissions at 620 nm and 665 nm after excitation at 350 nm was measured using Envision reader. The ratio of the emissions at 665 nm and at 620 nm provided the measure for the amount of phosphorylated CREBtide product of AKT1 E17K kinase activity. To determine the IC50 values, the data was normalized (enzyme reaction without inhibitor=0% inhibition, all other assay components but no enzyme=100% inhibition) and IC50 values were calculated by a 4-parameter fit using an in-house developed protocol.

Experiment [2] addresses T2, wildtype AKT1 (Homo sapiens, UniProt P31749).
T2 construct: Purified human recombinant kinase full-length wildtype AKT1 was expressed in insect cells; made in house; host or cells: insect cells
Nature of the experiment: AKT1 kinase assay, wildtype (TR-FRET, Lance). Type of experiment: biochemical. As to conditions: full-length human recombinant wildtype AKT1 activated by PDPK1; Ulight-CREBtide substrate; either 50 μM ATP or 2 mM ATP. The protocol: AKT1 kinase assay: Inhibitory effects of compounds on wildtype AKT1 were undertaken in a 10-pt dose response kinase activity assay measuring phospho-peptide product formation based on TR-FRET signal as described in the following paragraph.
as §1, with “full-length wildtype” for “full-length”, “AKT1” for “AKT1 E17K”, “nM AKT1,” for “nM AKT1 E17K,”, “Mix (PerkinElmer.” for “Mix (PerkinElmer,”
(In general: Time-resolved FRET reads energy transfer from a long-lived donor to a nearby acceptor.)

Among the data in patent US20260200921A1, “SUBSTITUTED AMINOPYRIDINE COMPOUNDS AS AKT INHIBITORS” (Atavistik Bio, Inc., priority 2023, published 2026) are IC50 values, retold here.

A word on the IC50: it is the concentration needed to halve the response being measured.

T2 sequence (P31749 whole entry): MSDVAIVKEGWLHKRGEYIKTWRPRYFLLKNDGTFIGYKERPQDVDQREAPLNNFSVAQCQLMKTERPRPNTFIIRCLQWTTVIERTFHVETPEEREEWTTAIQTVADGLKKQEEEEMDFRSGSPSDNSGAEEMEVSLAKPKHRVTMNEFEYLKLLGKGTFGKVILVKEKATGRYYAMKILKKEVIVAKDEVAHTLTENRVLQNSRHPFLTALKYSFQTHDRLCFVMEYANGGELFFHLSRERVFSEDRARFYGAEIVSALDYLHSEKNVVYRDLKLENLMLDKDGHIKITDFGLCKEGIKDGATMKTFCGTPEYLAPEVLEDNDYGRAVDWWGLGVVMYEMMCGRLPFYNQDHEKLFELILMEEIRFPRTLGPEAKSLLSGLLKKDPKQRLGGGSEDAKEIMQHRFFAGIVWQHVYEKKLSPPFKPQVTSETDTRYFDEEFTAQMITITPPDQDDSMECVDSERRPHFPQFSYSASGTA
T1 sequence (P31749 whole entry E17K): as the sequence (P31749 whole entry) above, with E17K counted along it

As to `Cc1cc(O)n(-c2ccc(C(=O)NCc3ccc(-n4c(-c5cccnc5N)nc5ccc(-c6ccccc6)nc54)cc3)cc2)n1` [Compound I-1, N-(4-(2-(2-aminopyridin-3-yl)-5-phenyl-3H-imidazo[4,5-b]pyridin-3-yl)benzyl)-4-(3-methyl-5-oxo-4,5-dihydro-1H-pyrazol-1-yl)benzamide], the IC50 in experiment [1] was 50 to 200 nM; in experiment [2], < 500 nM.

As to `COc1cc(C)nn1-c1ccc(C(=O)NCc2ccc(-n3c(-c4cccnc4N)nc4ccc(-c5ccccc5)nc43)cc2)cc1` [Compound I-2, N-(4-(2-(2-aminopyridin-3-yl)-5-phenyl-3H-imidazo[4,5-b]pyridin-3-yl)benzyl)-4-(5-methoxy-3-methyl-1H-pyrazol-1-yl)benzamide], the concentration for half-maximal inhibition (IC50) in experiment [1] is 200 to 500 nM; in experiment [2] it was < 500 nM.

In the case of `Cc1cc(O)n(-c2cccc(C(=O)NCc3ccc(-n4c(-c5cccnc5N)nc5ccc(-c6ccccc6)nc54)cc3)c2)n1` [Compound I-3, N-(4-(2-(2-aminopyridin-3-yl)-5-phenyl-3H-imidazo[4,5-b]pyridin-3-yl)benzyl)-3-(5-hydroxy-3-methyl-1H-pyrazol-1-yl)benzamide], the IC50 in experiment [1] is ≥ 500 nM; in experiment [2] it was < 500 nM.

Take `Cc1cc(O)n(-c2ccc(C(=O)NCc3ccc(-n4c(-c5cccnc5N)nc5ccc(-c6ccccc6)nc54)cc3)c(F)c2)n1` [Compound I-4, N-[[4-[2-(2-amino-3-pyridyl)-5-phenyl-imidazo[4,5-b]pyridin-3-yl]phenyl]methyl]-2-fluoro-4-(5-hydroxy-3-methyl-pyrazol-1-yl)benzamide]: the results for the IC50 in experiment [1] and in experiment [2] were 50 to 200 nM and < 500 nM, respectively.

In the case of `Cc1cc(O)n(-c2ccc(C(=O)NCc3ccc(-n4c(-c5cccnc5N)nc5ccc(-c6ccccc6)nc54)cc3)cc2F)n1` [Compound I-5, N-[[4-[2-(2-amino-3-pyridyl)-5-phenyl-imidazo[4,5-b]pyridin-3-yl]phenyl]methyl]-3-fluoro-4-(5-hydroxy-3-methyl-pyrazol-1-yl)benzamide], the concentration for half-maximal inhibition (IC50) in experiment [1] was 50 to 200 nM; in experiment [2], < 500 nM.

With `Nc1ncccc1-c1nc2ccc(-c3ccccc3)nc2n1-c1ccc(CNC(=O)c2ccc(-n3nc(C(F)(F)F)cc3O)cc2)cc1` [Compound I-6, N-(4-(2-(2-aminopyridin-3-yl)-5-phenyl-3H-imidazo[4,5-b]pyridin-3-yl)benzyl)-4-(5-hydroxy-3-(trifluoromethyl)-1H-pyrazol-1-yl)benzamide], the half-maximal inhibitory concentration (IC50) in experiment [1] is 200 to 500 nM; in experiment [2], < 500 nM.

Take `Nc1ncccc1-c1nc2ccc(-c3ccccc3)nc2n1-c1ccc(CNC(=O)c2cccc(-n3nc(C(F)(F)F)cc3O)c2)cc1` [Compound I-7, N-(4-(2-(2-aminopyridin-3-yl)-5-phenyl-3H-imidazo[4,5-b]pyridin-3-yl)benzyl)-3-(5-hydroxy-3-(trifluoromethyl)-1H-pyrazol-1-yl)benzamide]: the values for the IC50 in experiment [1] and in experiment [2] were ≥ 500 nM and < 500 nM, respectively.

On to `Nc1ncccc1-c1nc2ccc(-c3ccccc3)nc2n1-c1ccc(CNC(=O)c2ccc(-n3nc(-c4ccccc4)cc3O)cc2)cc1` [Compound I-8, N-(4-(2-(2-aminopyridin-3-yl)-5-phenyl-3H-imidazo[4,5-b]pyridin-3-yl)benzyl)-4-(5-hydroxy-3-phenyl-1H-pyrazol-1-yl)benzamide], for which the results for the 50% inhibitory concentration (IC50) in experiment [1] and in experiment [2] were ≥ 500 nM and < 500 nM, respectively.

Regarding `COC(=O)Cc1cc(O)n(-c2ccc(C(=O)NCc3ccc(-n4c(-c5cccnc5N)nc5ccc(-c6ccccc6)nc54)cc3)cc2)n1` [Compound I-9, Methyl 2-(1-(4-((4-(2-(2-aminopyridin-3-yl)-5-phenyl-3H-imidazo[4,5-b]pyridin-3-yl)benzyl)carbamoyl)phenyl)-5-hydroxy-1H-pyrazol-3-yl)acetate], the figures for the 50% inhibitory concentration (IC50) in experiment [1] and in experiment [2] were 50 to 200 nM and < 500 nM, respectively.

Consider `Nc1ncccc1-c1nc2ccc(-c3ccccc3)nc2n1-c1ccc(CNC(=O)c2ccc(-n3nc(CC(=O)O)cc3O)cc2)cc1` [Compound I-10, 2-(1-(4-((4-(2-(2-aminopyridin-3-yl)-5-phenyl-3H-imidazo[4,5-b]pyridin-3-yl)benzyl)carbamoyl)phenyl)-5-hydroxy-1H-pyrazol-3-yl)acetic acid], for which the IC50 in experiment [1] is < 50 nM; in experiment [2], < 500 nM.

`Nc1ncccc1-c1nc2ccc(-c3ccccc3)nc2n1-c1ccc(CNC(=O)c2ccc(-n3cc(C(=O)O)cn3)cc2)cc1` [Compound I-11, 1-(4-((4-(2-(2-aminopyridin-3-yl)-5-phenyl-3H-imidazo[4,5-b]pyridin-3-yl)benzyl)carbamoyl)phenyl)-1H-pyrazole-4-carboxylic acid]: the IC50 in experiment [1] was < 50 nM; in experiment [2], < 500 nM.

For `N#Cc1cnn(-c2ccc(C(=O)NCc3ccc(-n4c(-c5cccnc5N)nc5ccc(-c6ccccc6)nc54)cc3)cc2)c1` [Compound I-12, N-(4-(2-(2-aminopyridin-3-yl)-5-phenyl-3H-imidazo[4,5-b]pyridin-3-yl)benzyl)-4-(4-cyano-1H-pyrazol-1-yl)benzamide], the half-maximal inhibitory concentration (IC50) is 200 to 500 nM in experiment [1] and < 500 nM in experiment [2].

Turning to `Cc1cc(C#N)n(-c2ccc(C(=O)NCc3ccc(-n4c(-c5cccnc5N)nc5ccc(-c6ccccc6)nc54)cc3)cc2)n1` [Compound I-13, N-(4-(2-(2-aminopyridin-3-yl)-5-phenyl-3H-imidazo[4,5-b]pyridin-3-yl)benzyl)-4-(5-cyano-3-methyl-1H-pyrazol-1-yl)benzamide], the half-maximal inhibitory concentration (IC50) is 200 to 500 nM in experiment [1] and < 500 nM in experiment [2].

Turning to `N#Cc1cc(O)n(-c2ccc(C(=O)NCc3ccc(-n4c(-c5cccnc5N)nc5ccc(-c6ccccc6)nc54)cc3)cc2)n1` [Compound I-15, N-(4-(2-(2-aminopyridin-3-yl)-5-phenyl-3H-imidazo[4,5-b]pyridin-3-yl)benzyl)-4-(3-cyano-5-hydroxy-1H-pyrazol-1-yl)benzamide], the figures for the IC50 in experiment [1] and in experiment [2] were 50 to 200 nM and < 500 nM, respectively.

`Cc1cc(C(N)=O)n(-c2ccc(C(=O)NCc3ccc(-n4c(-c5cccnc5N)nc5ccc(-c6ccccc6)nc54)cc3)cc2)n1` [Compound I-16, 1-(4-((4-(2-(2-aminopyridin-3-yl)-5-phenyl-3H-imidazo[4,5-b]pyridin-3-yl)benzyl)carbamoyl)phenyl)-3-methyl-1H-pyrazole-5-carboxamide]: the 50% inhibitory concentration (IC50) is 200 to 500 nM in experiment [1] and < 500 nM in experiment [2].

For the molecule `Cc1cc(C(N)=O)nn1-c1ccc(C(=O)NCc2ccc(-n3c(-c4cccnc4N)nc4ccc(-c5ccccc5)nc43)cc2)cc1` [Compound I-17, 1-(4-((4-(2-(2-aminopyridin-3-yl)-5-phenyl-3H-imidazo[4,5-b]pyridin-3-yl)benzyl)carbamoyl)phenyl)-5-methyl-1H-pyrazole-3-carboxamide], the half-inhibitory concentration (IC50) in experiment [1] was 200 to 500 nM; in experiment [2], < 500 nM.
